# Laboratory results: patent publication US9771334B2, “Triketone compound and preparation method and use thereof” (SHANDONG CYNDA CHEMICAL CO., LTD., priority 2013, dated 2017)
# Columns and labels:
# Experiment in all cases: Herbicidal activity, pot culture method (primary and secondary screening test)
# Type in all cases: in vivo
# Conditions in all cases: primary screening, pot culture, 150 g/ha, sprayed at 3-leaf stage, result 15 days later
# setaria viridis = system: setaria viridis
# Excerpt: (§1) This test example is for describing the herbicidal activity inhibition ratio (%) (the dose is 150 g/ha) of the compound with a structure shown in Formula (I). Primary screening test (pot culture method): The test targets are abutilon theophrasti, digitaria sanguinalis, amaranthus retroflexus, echinochloa crusgalli, eclipta prostrata and setaria viridis. Take flowerpots with an inner diameter of 6 cm, put composite soil (vegetable garden soil:seedling matrix=1:2, v/v) into them till 3⁄4 of flowerpot height, directly sow the above six weed targets (budding rate>85%), cover them with 0.2 cm thick soil, and keep them for future use when the weeds grow to 3-leaf stage. Each compound is dissolved in N,N-dimethylformamide at a dose of 150 g/ha and diluted with distilled water into a 0.2 g/L solution. The solution is sprayed through an automatic spray tower. After the solution on weed leaves is aired dry, the flowerpots are moved into a greenhouse for cultivation. The result is investigated 15 days later. By the same method adopted in primary screening test, a secondary screening test is done on some typical compounds, such as: 5, 6, 20, 21, 23, 34, 47, 65, 66, 70 and 91 at a reduced dose, and the test result is compared with mesotrione which is commercially available and has a good herbicidal effect. The test method is same as that adopted in primary screening test. Mesotrione is bought from Hubei […] Chemical Co., Ltd.
# echinochloa crusgalli = system: echinochloa crusgalli
# Excerpt: as §1
# abutilon theophrasti = system: abutilon theophrasti
# Excerpt: as §1
# digitaria sanguinalis = system: digitaria sanguinalis
# Excerpt: as §1
# amaranthus retroflexus = system: amaranthus retroflexus
# Excerpt: as §1
# eclipta prostrata = system: eclipta prostrata
# Excerpt: as §1
SMILES,"herbicidal activity inhibition ratio (%), Setaria viridis (setaria viridis)","herbicidal activity inhibition ratio (%), Echinochloa crusgalli (echinochloa crusgalli)","herbicidal activity inhibition ratio (%), Abutilon theophrasti (abutilon theophrasti)","herbicidal activity inhibition ratio (%), Digitaria sanguinalis (digitaria sanguinalis)","herbicidal activity inhibition ratio (%), Amaranthus retroflexus (amaranthus retroflexus)","herbicidal activity inhibition ratio (%), Eclipta prostrata (eclipta prostrata)"
Cn1c(=O)n(-c2cccc(F)c2)c(=O)c2cc(C(=O)C3=C(O)CCCC3=O)ccc21 [Compound 10],80%,85%,100%,75%,85%,80%
Cc1cccc(C)c1-n1c(=O)c2cc(C(=O)C3=C(O)CC(C)(C)CC3=O)ccc2n(C)c1=O [Compound 98],80%,85%,100%,50%,100%,88%
Cn1c(=O)n(-c2ccc(OC(F)(F)F)cc2)c(=O)c2cc(C(=O)C3=C(O)CC(C)(C)CC3=O)ccc21 [Compound 49],50%,65%,100%,90%,95%,80%
CC(C)c1ccc(-n2c(=O)c3cc(C(=O)C4=C(O)CCCC4=O)ccc3n(C)c2=O)cc1 [Compound 36],50%,25%,50%,100%,35%,0%
Cn1c(=O)n(-c2ccccc2C(F)(F)F)c(=O)c2cc(C(=O)C3=C(O)CC(C)(C)CC3=O)ccc21 [Compound 41],25%,73%,100%,85%,95%,80%
Cn1c(=O)n(-c2ccccc2Br)c(=O)c2cc(C(=O)C3=C(O)CC(C)(C)CC3=O)ccc21 [Compound 28],35%,85%,100%,95%,95%,83%
Cn1c(=O)n(-c2ccc(Br)cc2)c(=O)c2cc(C(=O)C3=C(O)CC(C)(C)CC3=O)ccc21 [Compound 26],30%,85%,100%,93%,100%,88%
CCCn1c(=O)n(-c2ccccc2C)c(=O)c2cc(C(=O)C3=C(O)CCCC3=O)ccc21 [Compound 71],98%,80%,95%,25%,85%,98%
Cc1ccccc1-n1c(=O)c2cc(C(=O)C3=C(O)CCCC3=O)ccc2n(Cc2ccccc2)c1=O [Compound 79],10%,0%,0%,0%,0%,0%
Cc1cccc(Cl)c1-n1c(=O)c2cc(C(=O)C3=C(O)CCCC3=O)ccc2n(C)c1=O [Compound 95],100%,100%,100%,90%,100%,70%
CCn1c(=O)n(-c2ccc(Cl)cc2)c(=O)c2cc(C(=O)C3=C(O)CCCC3=O)ccc21 [Compound 43],50%,80%,65%,60%,98%,83%
Cn1c(=O)n(-c2ccccc2Br)c(=O)c2cc(C(=O)C3=C(O)CCCC3=O)ccc21 [Compound 27],60%,90%,83%,90%,100%,80%
Cn1c(=O)n(-c2ccc(Cl)cc2Cl)c(=O)c2cc(C(=O)C3=C(O)CCCC3=O)ccc21 [Compound 62],93%,83%,100%,65%,88%,20%
Cc1ccc(Cl)cc1-n1c(=O)c2cc(C(=O)C3=C(O)CC(C)(C)CC3=O)ccc2n(C)c1=O [Compound 37],40%,80%,65%,83%,95%,80%
Cc1ccccc1-n1c(=O)[nH]c2ccc(C(=O)C3=C(O)CC(C)(C)CC3=O)cc2c1=O [Compound 59],10%,0%,0%,0%,30%,25%
COc1ccccc1-n1c(=O)c2cc(C(=O)C3=C(O)CCCC3=O)ccc2n(C)c1=O [Compound 29],60%,90%,90%,88%,100%,65%
Cc1ccccc1-n1c(=O)c2cc(C(=O)C3=C(O)CC(C)(C)CC3=O)ccc2n(CC(C)C)c1=O [Compound 76],10%,0%,20%,0%,0%,0%
